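These data come from cells grown in 96-well plates and exposed to compound for 48 hours at five concentrations. Here, GI50 denotes the concentration required for 50% inhibition of growth. Definition used: TGI = concentration required for complete inhibition of growth.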
Tests used:
Assay in all cases: DTP human tumour cell line panel, 48 h
CAKI-1 renal = tested on: CAKI-1 renal
HOP-62 NSCLC = tested on: HOP-62 NSCLC
OVCAR-8 ovarian = tested on: OVCAR-8 ovarian
SK-MEL-2 melanoma = tested on: SK-MEL-2 melanoma
SN12C renal = tested on: SN12C renal
UACC-257 melanoma = tested on: UACC-257 melanoma
UO-31 renal = tested on: UO-31 renal
A498 renal = tested on: A498 renal
HS 578T breast = tested on: HS 578T breast
MCF7 breast = tested on: MCF7 breast

Structure (SMILES) | TGI (CAKI-1 renal) | TGI (HOP-62 NSCLC) | TGI (OVCAR-8 ovarian) | TGI (SK-MEL-2 melanoma) | TGI (SN12C renal) | TGI (UACC-257 melanoma) | TGI (UO-31 renal) | TGI (A498 renal) | TGI (HS 578T breast) | TGI (MCF7 breast) | GI50 (A498 renal) | GI50 (CAKI-1 renal) | GI50 (HOP-62 NSCLC) | GI50 (OVCAR-8 ovarian) | GI50 (SK-MEL-2 melanoma) | GI50 (SN12C renal) | GI50 (UACC-257 melanoma) | GI50 (MCF7 breast) | GI50 (UO-31 renal)
CC[P+]1(c2ccccc2)CCCCC1 | > 100 µM | > 100 µM | > 100 µM | > 100 µM | > 100 µM | > 100 µM | > 100 µM |  |  |  |  |  |  |  |  |  |  |  | 
FC(F)(F)c1nc(Br)[nH]c1C(F)(F)F | > 100 µM | 91.9 µM | > 100 µM | > 100 µM | > 100 µM | > 100 µM | > 100 µM |  |  |  |  |  |  |  |  |  |  |  | 
CNC(=O)NCCN1N=C(C)/C(=C\c2ccccc2)CC1=O | > 100 µM | > 100 µM | > 100 µM | > 100 µM | > 100 µM | > 100 µM | > 100 µM | > 100 µM |  |  |  |  |  |  |  |  |  |  | 
CCc1ccccc1NC(=O)C(=O)C(C#N)c1c(Cl)cccc1Cl (configuration not stated) | > 100 µM |  |  | > 100 µM | > 100 µM | > 100 µM | > 100 µM |  |  |  |  |  |  |  |  |  |  |  | 
N#CC(C#N)=C1CCC2C(=C(C#N)C#N)CCC12 (configuration not stated) | > 100 µM | > 100 µM | > 100 µM |  | > 100 µM | > 100 µM | > 100 µM | > 100 µM |  |  |  |  |  |  |  |  |  |  | 
Cc1ccc2c(c1)C(O)(c1ccccc1)CCS2 (configuration not stated) | 53.6 µM | > 100 µM | > 100 µM | 80.4 µM | > 100 µM | > 100 µM | 48.7 µM |  | > 100 µM | > 100 µM |  |  |  |  |  |  |  |  | 
Cc1ccc(NC(=O)CCC(=O)C2Cc3ccccc3C2=O)cc1C (configuration not stated) | > 100 µM | > 100 µM | > 100 µM | > 100 µM | > 100 µM | > 100 µM | > 100 µM | > 100 µM |  |  |  |  |  |  |  |  |  |  | 
CC(C)(C)OC1=C(OC(C)(C)C)C(O)(c2ccc(Cl)cc2)C1=O (configuration not stated) |  |  | > 100 µM |  | > 100 µM |  | > 100 µM | > 100 µM |  |  |  |  |  |  |  |  |  |  | 
CC(=N/NC(N)=S)/C(C)=N/NC(N)=S |  | > 100 µM | > 100 µM | > 100 µM | > 100 µM | > 100 µM | > 100 µM |  | > 100 µM | > 100 µM |  |  |  |  |  |  |  |  | 
O=C1CCc2ccc(O)c(c2)Oc2ccc(cc2)[C@@H]2O[C@@H]2CO1 | > 100 µM | > 100 µM | > 100 µM | > 100 µM | > 100 µM | > 100 µM | > 100 µM | 70.7 µM |  |  |  |  |  |  |  |  |  |  | 
O=C(O)CCSC(=O)Nc1ccccc1 | > 100 µM | > 100 µM | > 100 µM | > 100 µM | > 100 µM | > 100 µM | > 100 µM | > 100 µM |  |  |  |  |  |  |  |  |  |  | 
CN(C)CCNC(=O)c1cccc2c1nc(-c1ccncc1)c1ccccc12 | 24.5 µM | 19.5 µM | 41.9 µM | 19.1 µM | 14.8 µM | 12.6 µM | 6.08 µM | 7.67 µM |  |  |  |  |  |  |  |  |  |  | 
CCOC(=O)CCn1cnc(N)n1 | > 100 µM | > 100 µM | > 100 µM | > 100 µM | > 100 µM | > 100 µM | > 100 µM |  |  |  |  |  |  |  |  |  |  |  | 
C=C1C(C(=O)O)C1C(=O)O (configuration not stated) | > 100 µM | > 100 µM | > 100 µM | > 100 µM | > 100 µM | > 100 µM | > 100 µM | > 100 µM |  |  |  |  |  |  |  |  |  |  | 
Oc1ccc(/C=N/NC(=S)Nc2cccnc2)nc1 | > 100 µM | > 100 µM | 12.6 µM | > 100 µM | > 57 µM | 76.9 µM | > 26.9 µM | > 81.2 µM |  | > 39 µM |  |  |  |  |  |  |  |  | 
CSc1cc(C(C)(C)C)ccc1C(O)c1ccc(C(C)(C)C)cc1SC | 24.9 µM | 27.3 µM | 28.8 µM | 34.1 µM | 25.8 µM | 25.5 µM | 18.6 µM | 26.7 µM |  |  |  |  |  |  |  |  |  |  | 
CC(=O)[CH-]C(=O)c1ccccc1.CC(=O)[CH-]C(=O)c1ccccc1.CC(=O)[CH-]C(=O)c1ccccc1.[Br-].[Zr+4] | > 100 µM | > 100 µM | > 100 µM | > 100 µM | > 100 µM | > 100 µM |  | > 100 µM |  |  | 24.9 µM | 37.2 µM | 64 µM | > 100 µM | 38.5 µM | 57.1 µM | 48.2 µM |  | 
C=CCC1C(=O)CC2(C)C(CC=C)C(=O)CC12C (configuration not stated) | > 100 µM | > 100 µM | > 100 µM | > 100 µM | > 100 µM | > 100 µM | > 100 µM |  |  |  |  |  |  |  |  |  |  |  | 
O=C(OCc1ccccc1)n1cccc1 | > 100 µM | > 100 µM | > 100 µM | > 100 µM | > 100 µM | > 100 µM | > 100 µM | > 100 µM |  |  |  |  |  |  |  |  |  |  | 
CCc1cccc(NC(=O)c2cc(/C=C/c3ccccc3)[nH]c(=S)n2)c1 |  | > 100 µM | > 100 µM | > 100 µM | > 100 µM | > 100 µM | > 100 µM | > 100 µM |  |  |  |  |  |  |  |  |  |  | 
CCOP(=O)(OCC)C(NC(c1ccccc1)c1ccccc1)c1ccc(C(C)C)cc1 (configuration not stated) | 13.1 µM | 18.8 µM | 19.5 µM | 72.7 µM | 16.8 µM |  | 28.9 µM |  |  | 11.4 µM |  | 3.23 µM | 6.08 µM | 5.04 µM | 19.2 µM | 4.65 µM |  | 3.06 µM | 7.45 µM
N#CC1=C(c2ccccc2)OC2(N)OC(c3ccccc3)=C(C#N)C12C#N (configuration not stated) | > 100 µM | > 100 µM | > 100 µM | > 100 µM | > 100 µM | > 100 µM | > 100 µM | > 100 µM |  |  |  |  |  |  |  |  |  |  | 

Reference: PubChem BioAssay (NCI)
